Data as given in US7105543B2, “4-, 5-, 6- and 7-indole derivatives useful for the treatment of CNS disorders” (H. Lundbeck A/S, priority 2000, dated 2006).
Where two headings read alike, the source gives them in different places.

Assays:
[1] = target: T1, human cloned dopamine D4.2 receptors expressed in CHO-cells (Homo sapiens, UniProt P21917, DEL265-296); test: Inhibition of binding of [3H]YM-09151-2 to D4.2 receptors
T1 construct: expressed in transfected cells; host or cells: CHO cells
T1 sequence (P21917 with tags, fused parts or gaps DEL265-296): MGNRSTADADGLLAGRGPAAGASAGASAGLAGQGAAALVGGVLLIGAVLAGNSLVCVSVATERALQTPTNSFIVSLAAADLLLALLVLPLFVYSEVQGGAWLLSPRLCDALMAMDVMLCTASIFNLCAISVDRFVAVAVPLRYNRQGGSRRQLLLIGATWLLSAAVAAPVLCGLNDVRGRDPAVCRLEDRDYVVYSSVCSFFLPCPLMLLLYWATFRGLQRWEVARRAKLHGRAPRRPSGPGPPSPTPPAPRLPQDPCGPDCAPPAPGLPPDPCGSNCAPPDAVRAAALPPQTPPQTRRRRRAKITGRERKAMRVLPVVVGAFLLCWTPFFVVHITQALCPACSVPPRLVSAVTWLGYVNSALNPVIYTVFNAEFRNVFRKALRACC
Description: Inhibition of Binding of [^3H]YM-09151-2 to D4.2 Receptors
By this method, the inhibition by drugs of the binding of [^3H]YM-09151-2 (0.06 nM) to membranes of human cloned dopamine D4.2 receptors expressed in CHO-cells is determined in vitro. The method is modified from NEN Life Science Products, Inc., technical data certificate PC2533-10/96.

dopamine D2 receptor = target: T2, dopamine D2 receptor (Rattus norvegicus, UniProt P61169); test: Inhibition of the binding of [3H]Spiperone to D2 receptors
T2 construct: from tissue
Description: Inhibition of the Binding of [^3H]Spiperone to D2 Receptors
The compounds were tested with respect to affinity for the dopamine D2 receptor by determining their ability to inhibit the binding of [^3H]Spiperone to D2 receptors by the method of Hyttel et al. J. Neurochem. 1985, 44, 1615.

D4 receptor = target: T3, D4 receptor (Homo sapiens, UniProt P21917); settings: various in vitro efficacy assays, literature; cited from earlier work
T3 sequence (P21917 1-419): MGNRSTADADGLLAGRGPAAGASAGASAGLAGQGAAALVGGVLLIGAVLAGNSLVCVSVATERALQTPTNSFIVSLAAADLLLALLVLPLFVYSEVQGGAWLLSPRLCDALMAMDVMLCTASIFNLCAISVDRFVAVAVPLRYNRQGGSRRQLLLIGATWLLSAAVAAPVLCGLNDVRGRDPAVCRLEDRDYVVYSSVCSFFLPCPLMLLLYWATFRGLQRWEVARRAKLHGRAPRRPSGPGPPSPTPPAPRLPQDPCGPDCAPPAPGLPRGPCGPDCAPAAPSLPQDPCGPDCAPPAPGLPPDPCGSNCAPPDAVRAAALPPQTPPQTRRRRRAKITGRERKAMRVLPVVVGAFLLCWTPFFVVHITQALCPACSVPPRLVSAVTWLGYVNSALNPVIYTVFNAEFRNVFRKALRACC

[2] = inhibition of [3H]Spiperone binding, read-out: D2-Receptor IC50

T2 sequence (P61169 whole entry): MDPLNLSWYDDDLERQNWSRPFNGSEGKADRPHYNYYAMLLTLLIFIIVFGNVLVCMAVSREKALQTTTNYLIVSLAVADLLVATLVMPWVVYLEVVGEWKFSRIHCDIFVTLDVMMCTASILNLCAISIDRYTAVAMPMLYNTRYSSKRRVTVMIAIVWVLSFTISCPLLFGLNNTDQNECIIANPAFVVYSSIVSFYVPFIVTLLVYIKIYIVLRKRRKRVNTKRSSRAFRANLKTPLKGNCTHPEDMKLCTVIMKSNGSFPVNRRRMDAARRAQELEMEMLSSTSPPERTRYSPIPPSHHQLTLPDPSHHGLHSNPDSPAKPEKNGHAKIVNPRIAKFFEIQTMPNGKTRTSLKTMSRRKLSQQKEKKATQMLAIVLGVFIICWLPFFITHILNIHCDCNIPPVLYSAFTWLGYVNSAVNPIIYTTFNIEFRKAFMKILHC

Compound | IC50 [1] [nM] | IC50 (dopamine D2 receptor; [2]) [nM] | IC50 (dopamine D2 receptor) [nM] | Functional activity at the D4 receptor (in words) (D4 receptor) | D4-receptor, second figure after the slash in the IC50 cell ([1]; printed as '<50/89', meaning of the second figure not explained) [nM]
c1ccc(N2CCN(Cc3ccc4[nH]ccc4c3)CC2)cc1 [Compound 1d, 5-[[4-phenylpiperazin-1-yl]methyl]-1H-indole] | 31 | 940 | – | – | –
Clc1ccc(N2CCN(Cc3ccc4[nH]ccc4c3)CC2)cc1 [Compound 1a, 5-[[4-(4-chlorophenyl)piperazin-1-yl]methyl]-1H-indole] | 7.5 | – | 1700 | – | –
Clc1ccc(N2CCN(Cc3ccc4cc[nH]c4c3)CC2)cc1 [Compound 1f, 6-[[4-(4-chlorophenyl)piperazin-1-yl]methyl]-1H-indole] | – | – | > 10000 | – | –
CC(C)Oc1cccnc1N(C)C1CCN(Cc2ccccc2)CC1 [Compound U-101958] | – | – | – | partial D4 receptor agonists | –
c1cc2cc(CN3CCN(c4ccc5[nH]ccc5c4)CC3)ccc2[nH]1 [Compound 1b, 5-[[4-(5-indolyl)piperazin-1-yl]methyl]-1H-indole] | < 50 | 1000 | – | – | 89
COc1ccc(N2CCN(Cc3ccc4cc[nH]c4c3)CC2)cc1 [Compound 1g, 6-[[4-(4-methoxyphenyl)piperazin-1-yl]methyl]-1H-indole] | 9.1 | – | > 10000 | – | –
COc1ccc(N2CCN(Cc3ccc4[nH]ccc4c3)CC2)cc1 [Compound 1c, 5-[[4-(4-methoxyphenyl)piperazin-1-yl]methyl]-1H-indole] | 25 | – | > 10000 | – | –
Clc1ccc(C2=CCN(Cc3ccc4[nH]ccc4c3)CC2)cc1 [Compound 1e, 5-[4-(4-Chlorophenyl)-3,6-dihydro-2H-pyridin-1-ylmethyl]-1H-indole] | 1.4 | 190 | – | – | –
